Drawing on PubChem BioAssay (NCI), this text covers TGI and GI50 for nine compounds.

Test systems include U251 CNS; OVCAR-3 ovarian; K-562 leukemia; SK-OV-3 ovarian; ACHN renal; HL-60(TB) leukemia; HCT-116 colon; SK-MEL-5 melanoma; SK-MEL-2 melanoma; LOX IMVI melanoma.
Common to all, as to test: NCI tumour cell line growth inhibition, 48 h

SMILES strings stand for the structures.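 Method: 48-hour compound exposure of cells in 96-well plates, five concentrations, linear interpolation of endpoints. GI50 marks 50% less growth. TGI: concentration producing complete growth inhibition.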

As to `COC1=CC(=O)c2ccc(C(C)C)cc2C1(C)C1=NC(C)(C)CO1` (centres undefined), the TGI with U251 CNS, in the assay on OVCAR-3 ovarian, with K-562 leukemia, in the assay with SK-OV-3 ovarian, in the assay with ACHN renal and in the assay on HL-60(TB) leukemia was over 100000 nM each time. The TGI in the assay with HCT-116 colon, in the assay with SK-MEL-5 melanoma and in the assay on SK-MEL-2 melanoma was over 100000 nM in each case.

Consider `CCc1ccc(C2=C/C(=C/c3ccc(Cl)cc3)C(=O)N2CCc2ccc(S(N)(=O)=O)cc2)cc1`, for which the GI50 in the assay with U251 CNS is 2000 nM; in the assay with OVCAR-3 ovarian it was 2120 nM; with K-562 leukemia it was 2810 nM; in the assay on SK-OV-3 ovarian it was 3110 nM; in the assay with ACHN renal it was 1940 nM; in the assay with HL-60(TB) leukemia, 2120 nM. The GI50 in the assay with HCT-116 colon is 1740 nM; in the assay with SK-MEL-5 melanoma, 1630 nM; in the assay on SK-MEL-2 melanoma it was 2270 nM. Further, the TGI is 4200 nM in the assay with U251 CNS; 4600 nM in the assay with OVCAR-3 ovarian; over 100000 nM with K-562 leukemia; 9150 nM in the assay with SK-OV-3 ovarian; 4230 nM in the assay with ACHN renal; 5350 nM with HL-60(TB) leukemia. The figures for the TGI in the assay with HCT-116 colon, with SK-MEL-5 melanoma and with SK-MEL-2 melanoma were 3230 nM, 3070 nM and 7760 nM, respectively.

For `O=c1oc2ccc(Cl)cc2c(=O)n1-c1ccc(Cl)cc1F`, the GI50 in the assay on U251 CNS was 566 nM; with OVCAR-3 ovarian it was 355 nM; with LOX IMVI melanoma it was 424 nM; in the assay on K-562 leukemia, 422 nM; in the assay on SK-OV-3 ovarian, 501 nM; in the assay on ACHN renal, 512 nM. Moreover, the GI50 in the assay with HCT-116 colon was 442 nM; with SK-MEL-5 melanoma it was 205 nM; with SK-MEL-2 melanoma it was 370 nM. Moreover, the TGI in the assay with U251 CNS is over 31600 nM; in the assay on OVCAR-3 ovarian, 13800 nM; in the assay on LOX IMVI melanoma, 2270 nM; in the assay with K-562 leukemia, over 100000 nM; in the assay on ACHN renal, 8320 nM; in the assay with HCT-116 colon, 1700 nM. Moreover, the TGI in the assay on SK-MEL-5 melanoma came out at 486 nM; with SK-MEL-2 melanoma, 2260 nM.

As to `CCc1ccccc1NC(=O)/C(CC(=O)c1c(C)n([O-])c2ccccc2[n+]1=O)=N\NS(=O)(=O)c1ccc(C)cc1`, the TGI is over 100000 nM in the assay with U251 CNS; 80200 nM with OVCAR-3 ovarian; over 100000 nM in the assay on K-562 leukemia; over 100000 nM with SK-OV-3 ovarian; over 100000 nM in the assay on ACHN renal; 41600 nM in the assay with HL-60(TB) leukemia. The values for the TGI in the assay on HCT-116 colon and with SK-MEL-2 melanoma were 55300 nM and over 100000 nM, respectively.

Take `CC(=O)O[C@H](C[C@H](C(C)C)N(C)C(=O)[C@@H](NC(=O)[C@H]1CCCCN1C)C(C)C)c1nc(C(=O)N[C@@H](Cc2ccccc2)C[C@H](C)C(=O)O)c(C)s1`: the GI50 with U251 CNS, in the assay with OVCAR-3 ovarian, in the assay on LOX IMVI melanoma, with K-562 leukemia, in the assay on SK-OV-3 ovarian and in the assay with HCT-116 colon was under 2.5 nM in each case. Also, the GI50 in the assay with SK-MEL-5 melanoma and with SK-MEL-2 melanoma was under 2.5 nM throughout. The TGI in the assay on U251 CNS, in the assay with OVCAR-3 ovarian, in the assay on LOX IMVI melanoma, in the assay with K-562 leukemia, in the assay on SK-OV-3 ovarian and with HCT-116 colon was over 25000 nM in each case. The figures for the TGI in the assay with SK-MEL-5 melanoma and with SK-MEL-2 melanoma were 14.4 nM and over 25000 nM, respectively.

Take `CCOC(=O)/C(=C/c1ccc(OC)c(OC)c1)C(=O)c1ccccc1`: the TGI in the assay on U251 CNS was 65000 nM; in the assay with OVCAR-3 ovarian, 33600 nM; with K-562 leukemia it was over 100000 nM; with SK-OV-3 ovarian, 73100 nM; in the assay with ACHN renal, 68100 nM; with SK-MEL-5 melanoma, 29500 nM. The compound further displayed a TGI in the assay with SK-MEL-2 melanoma of over 100000 nM.

As for `O=C1C(=O)c2cc([N+](=O)[O-])ccc2-c2ccccc21`, the GI50 in the assay on U251 CNS is 1350 nM; in the assay on OVCAR-3 ovarian it was 1420 nM; in the assay on LOX IMVI melanoma, 1220 nM; in the assay on SK-OV-3 ovarian, 1760 nM; in the assay on ACHN renal it was 1600 nM; with HCT-116 colon it was 1430 nM. Also, the GI50 with SK-MEL-5 melanoma was 1800 nM; in the assay on SK-MEL-2 melanoma, 1550 nM. Besides, the TGI worked out at 2700 nM in the assay on U251 CNS; 2760 nM in the assay with OVCAR-3 ovarian; 2480 nM with LOX IMVI melanoma; 3140 nM in the assay with SK-OV-3 ovarian; 2960 nM in the assay on ACHN renal; 2820 nM in the assay with HCT-116 colon. For the same compound, the TGI in the assay with SK-MEL-5 melanoma came to 3200 nM; with SK-MEL-2 melanoma it was 3050 nM.

`CCCCCCCCN(CCCCCCCC)C(=N)c1ccnc2ccccc12`: the GI50 was 1230 nM in the assay on U251 CNS; 1200 nM in the assay with OVCAR-3 ovarian; 1610 nM with SK-OV-3 ovarian; 1370 nM in the assay with ACHN renal; 1300 nM in the assay on HL-60(TB) leukemia; 1240 nM with HCT-116 colon. The GI50 with SK-MEL-2 melanoma was 1780 nM. Also, the TGI was determined as 2580 nM in the assay with U251 CNS; 2540 nM in the assay with OVCAR-3 ovarian; 3000 nM in the assay on SK-OV-3 ovarian; 2780 nM with ACHN renal; 2970 nM in the assay with HL-60(TB) leukemia; 2550 nM in the assay on HCT-116 colon. In the assay on SK-MEL-2 melanoma, the TGI was found to be 3350 nM.

Turning to `CC1=CC(=O)C(C)(C2=NC(C)(C)CO2)c2ccccc21` (centres undefined), the TGI in the assay on U251 CNS, in the assay with OVCAR-3 ovarian, with K-562 leukemia, in the assay with SK-OV-3 ovarian, in the assay with ACHN renal and in the assay on HL-60(TB) leukemia was over 100000 nM throughout. In addition, the TGI in the assay with HCT-116 colon, with SK-MEL-5 melanoma and with SK-MEL-2 melanoma was over 100000 nM each time.
